One assay relates to C. albicans SC5314. Description: G. mellonella infection model. The note with it: 19ak 0.4 μg per larva, FLC 2 μg per larva. It is filed as in vivo, Galleria mellonella. As to the method:
The G. mellonella infection model was used to evaluate the in vivo activity of 19ak in terms of survival, fungal burden, and histological features. A total of 60 larvae of similar size were selected and randomly allocated to four groups. The last right foreleg of each larva was injected with 10 μL of C. albicans SC5314 suspension (2 × 10^7 CFU/mL). Two hours after infection, the larvae were injected with 10 μL of drug or vehicle as follows for the four groups: 19ak (0.4 μg per larva), FLC (2 μg per larva), control (PBS), and blank control (no injection with C. albicans but injections of sterile PBS twice). The data for the blank control are not shown because this group survived well during the experiment. Failure to respond to light contact with forceps was considered a sign of larval death. In the survival assay, the number of surviving larvae in each group was calculated at the same time every day for 4 days.
To determine fungal burden, larval infection and treatment were performed as described above with groups of 30 larvae each. Each day, five larvae were randomly selected from each group and homogenized with glass beads in 0.5 mL of sterile PBS. The homogenate was serially diluted with sterile PBS, and 5 μL was spread on a yeast-peptone-dextrose solid plate ([62]). Experiments were performed at least three times independently.
We also conducted histopathological studies to explore the therapeutic effects of the drugs on G. mellonella fungal infection. First, the groups of larvae were infected as described above. After 48 h, three larvae from each group were randomly selected and fixed in 4% paraformaldehyde for sectioning and Periodic acid-Schiff (PAS) staining. The tissue was observed and photographed under an Olympus microscope with 40 × magnification (IX71, Olympus, Tokyo, Japan). The experiments were performed independently a minimum of three times.

A further assay deals with CAT. The experiment in a line: Catalase (CAT) activity in treated cells. It is filed as cell-based. The note with it: 0.5 μg/mL or above, 6 h. Here is the method: Determination of SOD activity. SOD activity was measured using the Superoxide Dismutase Activity Assay Kit (Njjcbio, Nanjing, China) following the manufacturer's instructions. An overnight culture of C. albicans SC5314 was adjusted to 1 × 10^7 cells/mL with RPMI1640 medium and treated with 19ak at a final concentration of 0, 0.125, 0.25, 0.5, or 1 μg/mL for 6 h. After collection by centrifugation, the cells were broken by glass beads in extraction buffer and centrifuged at 4°C. The absorbance of the supernatant of each sample was measured with a microplate reader at450 nm.
Determination of catalase (CAT) activity. CAT activity was measured by using a Catalase Assay Kit (Solarbio, Beijing, China) following the manufacturer's instructions. An overnight culture of C. albicans SC5314 was adjusted to 1 × 10^6 cells/mL with RPMI1640 medium and treated as described above for SOD activity.
The decomposition of H2O2 is directly accompanied by a decrease in absorbance at 240 nm, and the difference in absorbance per unit time (ΔA240) is a measure of […]
Quantitative real-time polymerase chain reaction (qPCR) analysis. C. albicans SC5314 cells (1 × 10^6 cells/mL) were incubated with or without 19ak (0.5,2 μg/mL) in RPMI1640 medium for 6 h. Total RNA was extracted using the hot phenol method, and the RNA quality was analyzed using a spectrophotometer (Eppendorf, Hamburg, Germany). […]

The next assay relates to C. albicans SC5314 cells. Description: Intracellular free iron levels using FeRhoNox-1. The note with it: 0.5 μg/mL, 6 h, compared with untreated cells. The class given is cell-based, Candida albicans. As to the method: FeRhoNox-1 is a commercially available fluorescent probe that specifically binds Fe^2+ and is used to measure intracellular Fe^2 + content. C. albicans SC5314 cells cultured overnight were diluted to roughly 1 × 10^6 cells/mL in RPMI 1640 medium and challenged with various doses of 19ak for 6 h. Next, the cells were fixed with 4% paraformaldehyde for 1 h. After washing three times with PBS, the cells were stained with 5 μM FeRhoNox-1 for 30 min and analyzed by flow cytometry (Becton, Dickinson, CA, USA). Mammalian cells culture is according to the method described in Cytotoxicity testing which was described in Supplemental material in detail. After 12 h of treatment with different concentrations of 19ak, the supernatant was discarded and washed three times with PBS. Cells were collected after staining with FeRhoNox-1 for 30 min in the dark, and the fluorescence intensity of stained cells was analyzed by flow cytometry.

Molecules are shown by their SMILES.

For the compound `C/C(=N\NC(=S)N(C)C)c1ccccn1` [Compound 19ak], the “Histopathology of infected larvae” value in the assay on C. albicans SC5314 (48 h, PAS staining) is given as “fewer infected areas”. For the same compound, the “Fungal burden of infected larvae” value in the assay on C. albicans SC5314 (compared with the control group) was “greatly reduced the fungal burden”. In the assay on C. albicans SC5314 (after 4 days of infection, 2 h after infection), the “Survival rate of infected larvae” value came to 67%. For the same compound, in the assay on CAT, the CAT activity result was “increased”. The “Intracellular labile ferrous ions (FeRhoNox-1)” value with C. albicans SC5314 cells is on record as “obvious drop”.
